Source: patent US20250127162A1, “METHODS AND COMPOSITIONS FOR CONTROLLING PESTS IN RICE” (Globachem NV, priority 2022, published 2025)

System: Chilo suppressalis
Assay: Rice field trials, Chilo suppressalis insect damage / white heads (Example 1, Trials 3-4, Thailand)
Type: in vivo
Details: for percent reduction in insect damage relative to untreated control: UTC given as 0
Description: All applications were made with an EC formulation containing 650 g/L of pelargonic acid (e.g., 685 g/L of 95% purity pelargonic acid), an anionic emulsifier and a branched fatty acid ester solvent. […] Trials 1 4 assessing the use of pelargonic acid for controlling Chilo suppressalis in rice were conducted in Spain and Thailand. Application A was made to the crops at the beginning of infestations; for these trials, Stage BBCH 59; Application B was made 14 days after Application A. Trial 3 was conducted in Thailand using a water volume of 500 L/ha of water per application unless otherwise indicated. Insect Damage ([…] %), Insect Damage (Number) and Phytotoxicity were assessed at various treatment evaluation intervals. Population levels were recorded by counting number of rice plants per hill, number of white head (damage from rice stem borer) followed by calculation of % insect damage. Trial 4 was conducted in Thailand using a water volume of 500 L/ha of water per application unless otherwise indicated. Insect Damage ([…] %), Insect Damage (Number) and Phytotoxicity were assessed at various treatment evaluation intervals. Population levels were recorded by counting number of rice plants per hill, number of white head (damage from rice stem borer) followed by calculation of % insect damage.

[1] = Trial 3, 21 DAB, water volume 500 L/ha, rate in treatment name, Prevathon 0.5 L/ha, listed as PA 2600 g/ha
[2] = Trial 4, 0 DAA, water volume 200 L/ha
[3] = Trial 4, 0 DAB, water volume 200 L/ha
[4] = Trial 4, 0 DAB, water volume 500 L/ha, rate in treatment name, Prevathon 0.5 L/ha, listed as PA 585 g/ha
[5] = Trial 4, 0 DAB, water volume 500 L/ha, rate in treatment name, Prevathon 0.5 L/ha, listed as PA 975 g/ha
[6] = Trial 4, 0 DAB, water volume 500 L/ha, rate in treatment name, Prevathon 0.5 L/ha, listed as PA 1300 g/ha
[7] = Trial 4, 0 DAB, water volume 500 L/ha, rate in treatment name, Prevathon 0.5 L/ha, listed as PA 2600 g/ha
[8] = Trial 4, 7 DAA, water volume 200 L/ha
[9] = Trial 4, 7 DAA, water volume 500 L/ha, rate in treatment name, Prevathon 0.5 L/ha, listed as PA 585 g/ha
[10] = Trial 4, 7 DAA, water volume 500 L/ha, rate in treatment name, Prevathon 0.5 L/ha, listed as PA 975 g/ha
[11] = Trial 4, 7 DAA, water volume 500 L/ha, rate in treatment name, Prevathon 0.5 L/ha, listed as PA 1300 g/ha
[12] = Trial 4, 7 DAA, water volume 500 L/ha, rate in treatment name, Prevathon 0.5 L/ha, listed as PA 2600 g/ha
[13] = Trial 4, 7 DAB, water volume 200 L/ha
[14] = Trial 4, 7 DAB, water volume 500 L/ha, rate in treatment name, Prevathon 0.5 L/ha, listed as PA 585 g/ha
[15] = Trial 4, 7 DAB, water volume 500 L/ha, rate in treatment name, Prevathon 0.5 L/ha, listed as PA 975 g/ha
[16] = Trial 4, 7 DAB, water volume 500 L/ha, rate in treatment name, Prevathon 0.5 L/ha, listed as PA 1300 g/ha
[17] = Trial 4, 7 DAB, water volume 500 L/ha, rate in treatment name, Prevathon 0.5 L/ha, listed as PA 2600 g/ha
[18] = Trial 4, 10 DAA, water volume 200 L/ha
[19] = Trial 4, 10 DAA, water volume 500 L/ha, rate in treatment name, Prevathon 0.5 L/ha, listed as PA 585 g/ha
[20] = Trial 4, 10 DAA, water volume 500 L/ha, rate in treatment name, Prevathon 0.5 L/ha, listed as PA 975 g/ha
[21] = Trial 4, 10 DAA, water volume 500 L/ha, rate in treatment name, Prevathon 0.5 L/ha, listed as PA 1300 g/ha
[22] = Trial 4, 10 DAA, water volume 500 L/ha, rate in treatment name, Prevathon 0.5 L/ha, listed as PA 2600 g/ha
[23] = Trial 4, 10 DAB, water volume 200 L/ha
[24] = Trial 4, 10 DAB, water volume 500 L/ha, rate in treatment name, Prevathon 0.5 L/ha, listed as PA 585 g/ha
[25] = Trial 4, 10 DAB, water volume 500 L/ha, rate in treatment name, Prevathon 0.5 L/ha, listed as PA 975 g/ha
[26] = Trial 4, 10 DAB, water volume 500 L/ha, rate in treatment name, Prevathon 0.5 L/ha, listed as PA 1300 g/ha
[27] = Trial 4, 10 DAB, water volume 500 L/ha, rate in treatment name, Prevathon 0.5 L/ha, listed as PA 2600 g/ha
[28] = Trial 4, 14 DAB, water volume 200 L/ha
[29] = Trial 4, 14 DAB, water volume 500 L/ha, rate in treatment name, Prevathon 0.5 L/ha, listed as PA 585 g/ha
[30] = Trial 4, 14 DAB, water volume 500 L/ha, rate in treatment name, Prevathon 0.5 L/ha, listed as PA 975 g/ha
[31] = Trial 4, 14 DAB, water volume 500 L/ha, rate in treatment name, Prevathon 0.5 L/ha, listed as PA 1300 g/ha
[32] = Trial 4, 14 DAB, water volume 500 L/ha, rate in treatment name, Prevathon 0.5 L/ha, listed as PA 2600 g/ha
[33] = Trial 4, 21 DAB, water volume 200 L/ha
[34] = Trial 4, 21 DAB, water volume 500 L/ha, rate in treatment name, Prevathon 0.5 L/ha, listed as PA 585 g/ha
[35] = Trial 4, 21 DAB, water volume 500 L/ha, rate in treatment name, Prevathon 0.5 L/ha, listed as PA 975 g/ha
[36] = Trial 4, 21 DAB, water volume 500 L/ha, rate in treatment name, Prevathon 0.5 L/ha, listed as PA 1300 g/ha
[37] = Trial 4, 21 DAB, water volume 500 L/ha, rate in treatment name, Prevathon 0.5 L/ha, listed as PA 2600 g/ha

SMILES: CCCCCCCCC(=O)O [PA 650 g/ha, pelargonic acid]
- DAMINS % (insect damage, % white heads) [1]: 0.19%
- DAMINS (number): mean number of insect damage (white head symptoms) [1]: 0.75
- DAMINS (number): mean number of insect damage (white head symptoms) [2]: 5.5
- percent reduction in insect damage relative to untreated control [2]: 0%
- percent reduction in insect damage relative to untreated control (Trial 4, 0 DAA, water volume 500 L/ha, rate in treatment name, Prevathon 0.5 L/ha): 0%
- DAMINS (number): mean number of insect damage (white head symptoms) (Trial 4, 0 DAA, water volume 500 L/ha, rate in treatment name, Prevathon 0.5 L/ha, listed as PA 585 g/ha): 4.57
- DAMINS (number): mean number of insect damage (white head symptoms) (Trial 4, 0 DAA, water volume 500 L/ha, rate in treatment name, Prevathon 0.5 L/ha, listed as PA 975 g/ha): 5.19
- DAMINS (number): mean number of insect damage (white head symptoms) (Trial 4, 0 DAA, water volume 500 L/ha, rate in treatment name, Prevathon 0.5 L/ha, listed as PA 1300 g/ha): 5.23
- DAMINS (number): mean number of insect damage (white head symptoms) (Trial 4, 0 DAA, water volume 500 L/ha, rate in treatment name, Prevathon 0.5 L/ha, listed as PA 2600 g/ha): 5.07
- DAMINS (number): mean number of insect damage (white head symptoms) [3]: 1.36
- percent reduction in insect damage relative to untreated control [3]: 71.53%
- percent reduction in insect damage relative to untreated control [4]: 22.87%
- percent reduction in insect damage relative to untreated control [5]: 28.25%
- percent reduction in insect damage relative to untreated control [6]: 38.54%
- percent reduction in insect damage relative to untreated control [7]: 67.46%
- DAMINS (number): mean number of insect damage (white head symptoms) [4]: 3.57
- DAMINS (number): mean number of insect damage (white head symptoms) [5]: 3.34
- DAMINS (number): mean number of insect damage (white head symptoms) [6]: 2.88
- DAMINS (number): mean number of insect damage (white head symptoms) [7]: 1.49
- DAMINS (number): mean number of insect damage (white head symptoms) [8]: 2.94
- percent reduction in insect damage relative to untreated control [8]: 62.66%
- percent reduction in insect damage relative to untreated control [9]: 15.96%
- percent reduction in insect damage relative to untreated control [10]: 22.58%
- percent reduction in insect damage relative to untreated control [11]: 44.41%
- percent reduction in insect damage relative to untreated control [12]: 51.10%
- DAMINS (number): mean number of insect damage (white head symptoms) [9]: 6.67
- DAMINS (number): mean number of insect damage (white head symptoms) [10]: 6.09
- DAMINS (number): mean number of insect damage (white head symptoms) [11]: 4.38
- DAMINS (number): mean number of insect damage (white head symptoms) [12]: 3.87
- DAMINS (number): mean number of insect damage (white head symptoms) [13]: 0.76
- percent reduction in insect damage relative to untreated control [13]: 80.70%
- percent reduction in insect damage relative to untreated control [14]: 27.16%
- percent reduction in insect damage relative to untreated control [15]: 36.66%
- percent reduction in insect damage relative to untreated control [16]: 49.64%
- percent reduction in insect damage relative to untreated control [17]: 66.66%
- DAMINS (number): mean number of insect damage (white head symptoms) [14]: 2.86
- DAMINS (number): mean number of insect damage (white head symptoms) [15]: 2.52
- DAMINS (number): mean number of insect damage (white head symptoms) [16]: 1.93
- DAMINS (number): mean number of insect damage (white head symptoms) [17]: 1.32
- DAMINS (number): mean number of insect damage (white head symptoms) [18]: 1.76
- percent reduction in insect damage relative to untreated control [18]: 80.59%
- percent reduction in insect damage relative to untreated control [19]: 40.99%
- percent reduction in insect damage relative to untreated control [20]: 44.26%
- percent reduction in insect damage relative to untreated control [21]: 56.19%
- percent reduction in insect damage relative to untreated control [22]: 72.62%
- DAMINS (number): mean number of insect damage (white head symptoms) [19]: 5.33
- DAMINS (number): mean number of insect damage (white head symptoms) [20]: 4.99
- DAMINS (number): mean number of insect damage (white head symptoms) [21]: 3.94
- DAMINS (number): mean number of insect damage (white head symptoms) [22]: 2.48
- DAMINS (number): mean number of insect damage (white head symptoms) [23]: 1.06
- percent reduction in insect damage relative to untreated control [23]: 77.49%
- percent reduction in insect damage relative to untreated control [24]: 22.53%
- percent reduction in insect damage relative to untreated control [25]: 51.13%
- percent reduction in insect damage relative to untreated control [26]: 61.44%
- percent reduction in insect damage relative to untreated control [27]: 74.82%
- DAMINS (number): mean number of insect damage (white head symptoms) [24]: 3.71
- DAMINS (number): mean number of insect damage (white head symptoms) [25]: 2.35
- DAMINS (number): mean number of insect damage (white head symptoms) [26]: 1.86
- DAMINS (number): mean number of insect damage (white head symptoms) [27]: 1.19
- DAMINS (number): mean number of insect damage (white head symptoms) [28]: 0.9
- percent reduction in insect damage relative to untreated control [28]: 80.46%
- percent reduction in insect damage relative to untreated control [29]: 19.69%
- percent reduction in insect damage relative to untreated control [30]: 40.42%
- percent reduction in insect damage relative to untreated control [31]: 46.02%
- percent reduction in insect damage relative to untreated control [32]: 76.77%
- DAMINS (number): mean number of insect damage (white head symptoms) [29]: 3.78
- DAMINS (number): mean number of insect damage (white head symptoms) [30]: 2.74
- DAMINS (number): mean number of insect damage (white head symptoms) [31]: 2.54
- DAMINS (number): mean number of insect damage (white head symptoms) [32]: 1.1
- DAMINS (number): mean number of insect damage (white head symptoms) [33]: 1.24
- percent reduction in insect damage relative to untreated control [33]: 74.20%
- percent reduction in insect damage relative to untreated control [34]: 29.88%
- percent reduction in insect damage relative to untreated control [35]: 37.44%
- percent reduction in insect damage relative to untreated control [36]: 52.85%
- percent reduction in insect damage relative to untreated control [37]: 71.12%
- DAMINS (number): mean number of insect damage (white head symptoms) [34]: 3.3
- DAMINS (number): mean number of insect damage (white head symptoms) [35]: 2.96
- DAMINS (number): mean number of insect damage (white head symptoms) [36]: 2.26
- DAMINS (number): mean number of insect damage (white head symptoms) [37]: 1.38
